Laboratory results as given in US11395857B2, “Radiolabeled melanocortin 1 receptor-specific alpha-melanocyte-stimulating hormone analogues for imaging or therapy” (PROVINCIAL HEALTH SERVICES AUTHORITY, priority 2018, dated 2022).
Read-outs that look alike come from different tables or passages of the source.

Legend:
[1] = Biodistribution of 177Lu-labeled αMSH analogues in mice bearing B16F10 mouse melanoma; format: in vivo, C57BL/6J mice; details: mouse, iv, total radioactivity, C57BL/6J mice, B16F10 melanoma
Procedure: (§1) The B16-F10 mouse melanoma cells were cultured and inoculated in mice as described in Example 1.
(§2) For biodistribution studies, approximately 1-2 MBq of ^177Lu-labeled αMSH analogues via tail vein under anesthesia. At 1, 4, 24, and 120 h p.i., the mice were euthanized by CO2 inhalation. Organs/tissues were harvested and the radioactivity was measured as described in Example 1.

B16F10 mouse melanoma = assay: as above; format: in vivo, C57BL/6J mice; details: C57BL/6J mice, B16F10 melanoma
Procedure: as §1, §2

**Q.** What does the source list for `CCCC[C@H](NC(=O)CN1CCC(NC(=O)[C@H](CCCCNC(=O)CN2CCN(CC(=O)O)CCN(CC(=O)O)CCN(CC(=O)O)CC2)NC(=O)[C@H](CCC(=O)O)NC(=O)CCCc2ccc(I)cc2)CC1)C(=O)N[C@H]1CC(=O)NCCCC[C@@H](C(N)=O)NC(=O)[C@H](Cc2c[nH]c3ccccc23)NC(=O)[C@H](CCCNC(=N)N)NC(=O)[C@@H](Cc2ccccc2)NC(=O)[C@H](Cc2c[nH]cn2)NC1=O` [^177Lu-labeled CCZ01082, metal not drawn]?
**A.** tissue uptake at 1 h ([1]; male, seminal glands, 1 h p.i., read-out: Biodistribution, Seminal glands): 0.48 ± 0.13 %ID/g; tissue uptake at 4 h ([1]; male, seminal glands, 4 h p.i., read-out: Biodistribution, Seminal glands): 0.32 ± 0.15 %ID/g; tissue uptake at 24 h ([1]; male, seminal glands, 24 h p.i., read-out: Biodistribution, Seminal glands): 0.1 ± 0.04 %ID/g; tissue uptake at 120 h ([1]; male, seminal glands, 120 h p.i., read-out: Biodistribution, Seminal glands): 0.04 ± 0.02 %ID/g; tissue uptake at 1 h ([1]; male, testes, 1 h p.i., read-out: Biodistribution, Testes): 1.3 ± 0.4 %ID/g; tissue uptake at 4 h ([1]; male, testes, 4 h p.i., read-out: Biodistribution, Testes): 0.75 ± 0.26 %ID/g; tissue uptake at 24 h ([1]; male, testes, 24 h p.i., read-out: Biodistribution, Testes): 0.32 ± 0.17 %ID/g; tissue uptake at 120 h ([1]; male, testes, 120 h p.i., read-out: Biodistribution, Testes): 0.2 ± 0.11 %ID/g; tissue uptake at 1 h ([1]; adrenal glands, 1 h p.i., read-out: Biodistribution, Adrenal glands): 2.62 ± 1.48 %ID/g; tissue uptake at 4 h ([1]; adrenal glands, 4 h p.i., read-out: Biodistribution, Adrenal glands): 1.31 ± 0.56 %ID/g; tissue uptake at 24 h ([1]; adrenal glands, 24 h p.i., read-out: Biodistribution, Adrenal glands): 0.41 ± 0.35 %ID/g; tissue uptake at 120 h ([1]; adrenal glands, 120 h p.i., read-out: Biodistribution, Adrenal glands): 0.33 ± 0.23 %ID/g; tissue uptake at 1 h ([1]; blood, 1 h p.i., read-out: Biodistribution, Blood): 8.32 ± 2.74 %ID/g; tissue uptake at 4 h ([1]; blood, 4 h p.i., read-out: Biodistribution, Blood): 2.82 ± 1.17 %ID/g; tissue uptake at 24 h ([1]; blood, 24 h p.i., read-out: Biodistribution, Blood): 0.33 ± 0.57 %ID/g; tissue uptake at 120 h ([1]; blood, 120 h p.i., read-out: Biodistribution, Blood): 0.03 ± 0.04 %ID/g; tissue uptake at 1 h ([1]; bone, 1 h p.i., read-out: Biodistribution, Bone): 0.84 ± 0.19 %ID/g; tissue uptake at 4 h ([1]; bone, 4 h p.i., read-out: Biodistribution, Bone): 0.51 ± 0.11 %ID/g; tissue uptake at 24 h ([1]; bone, 24 h p.i., read-out: Biodistribution, Bone): 0.31 ± 0.08 %ID/g; tissue uptake at 120 h ([1]; bone, 120 h p.i., read-out: Biodistribution, Bone): 0.17 ± 0.07 %ID/g; tissue uptake at 1 h ([1]; brain, 1 h p.i., read-out: Biodistribution, Brain): 0.13 ± 0.03 %ID/g; tissue uptake at 4 h ([1]; brain, 4 h p.i., read-out: Biodistribution, Brain): 0.06 ± 0.02 %ID/g; tissue uptake at 24 h ([1]; brain, 24 h p.i., read-out: Biodistribution, Brain): 0.01 ± 0.02 %ID/g; tissue uptake at 120 h ([1]; brain, 120 h p.i., read-out: Biodistribution, Brain): 0.01 ± 0.01 %ID/g; tissue uptake at 1 h ([1]; fat, 1 h p.i., read-out: Biodistribution, Fat): 0.61 ± 0.23 %ID/g; tissue uptake at 4 h ([1]; fat, 4 h p.i., read-out: Biodistribution, Fat): 0.39 ± 0.12 %ID/g; tissue uptake at 24 h ([1]; fat, 24 h p.i., read-out: Biodistribution, Fat): 0.1 ± 0.13 %ID/g; tissue uptake at 120 h ([1]; fat, 120 h p.i., read-out: Biodistribution, Fat): 0.05 ± 0.05 %ID/g; tissue uptake at 1 h ([1]; heart, 1 h p.i., read-out: Biodistribution, Heart): 2.03 ± 0.68 %ID/g; tissue uptake at 4 h ([1]; heart, 4 h p.i., read-out: Biodistribution, Heart): 0.8 ± 0.32 %ID/g; tissue uptake at 24 h ([1]; heart, 24 h p.i., read-out: Biodistribution, Heart): 0.18 ± 0.17 %ID/g; tissue uptake at 120 h ([1]; heart, 120 h p.i., read-out: Biodistribution, Heart): 0.09 ± 0.04 %ID/g; tissue uptake at 1 h ([1]; intestine, 1 h p.i., read-out: Biodistribution, Intestine): 1.34 ± 0.28 %ID/g; tissue uptake at 4 h ([1]; intestine, 4 h p.i., read-out: Biodistribution, Intestine): 2.91 ± 4.94 %ID/g; tissue uptake at 24 h ([1]; intestine, 24 h p.i., read-out: Biodistribution, Intestine): 0.43 ± 0.32 %ID/g; tissue uptake at 120 h ([1]; intestine, 120 h p.i., read-out: Biodistribution, Intestine): 0.08 ± 0.07 %ID/g; tissue uptake at 1 h ([1]; kidneys, 1 h p.i., read-out: Biodistribution, Kidneys): 11.7 ± 5.52 %ID/g; tissue uptake at 4 h ([1]; kidneys, 4 h p.i., read-out: Biodistribution, Kidneys): 11.6 ± 5.03 %ID/g; tissue uptake at 24 h ([1]; kidneys, 24 h p.i., read-out: Biodistribution, Kidneys): 8.63 ± 6.4 %ID/g; tissue uptake at 120 h ([1]; kidneys, 120 h p.i., read-out: Biodistribution, Kidneys): 1.98 ± 0.72 %ID/g; tissue uptake at 1 h ([1]; liver, 1 h p.i., read-out: Biodistribution, Liver): 3.45 ± 0.31 %ID/g; tissue uptake at 4 h ([1]; liver, 4 h p.i., read-out: Biodistribution, Liver): 3.83 ± 0.28 %ID/g; tissue uptake at 24 h ([1]; liver, 24 h p.i., read-out: Biodistribution, Liver): 2.41 ± 0.34 %ID/g; tissue uptake at 120 h ([1]; liver, 120 h p.i., read-out: Biodistribution, Liver): 0.9 ± 0.12 %ID/g; tissue uptake at 1 h ([1]; lungs, 1 h p.i., read-out: Biodistribution, Lungs): 5.11 ± 2.81 %ID/g; tissue uptake at 4 h ([1]; lungs, 4 h p.i., read-out: Biodistribution, Lungs): 2.46 ± 0.54 %ID/g; tissue uptake at 24 h ([1]; lungs, 24 h p.i., read-out: Biodistribution, Lungs): 0.42 ± 0.34 %ID/g; tissue uptake at 120 h ([1]; lungs, 120 h p.i., read-out: Biodistribution, Lungs): 0.54 ± 0.87 %ID/g; tissue uptake at 1 h ([1]; muscle, 1 h p.i., read-out: Biodistribution, Muscle): 0.79 ± 0.22 %ID/g; tissue uptake at 4 h ([1]; muscle, 4 h p.i., read-out: Biodistribution, Muscle): 0.39 ± 0.1 %ID/g; tissue uptake at 24 h ([1]; muscle, 24 h p.i., read-out: Biodistribution, Muscle): 0.06 ± 0.05 %ID/g; tissue uptake at 120 h ([1]; muscle, 120 h p.i., read-out: Biodistribution, Muscle): 0.03 ± 0.02 %ID/g; tissue uptake at 1 h ([1]; pancreas, 1 h p.i., read-out: Biodistribution, Pancreas): 1.14 ± 0.32 %ID/g; tissue uptake at 4 h ([1]; pancreas, 4 h p.i., read-out: Biodistribution, Pancreas): 0.52 ± 0.27 %ID/g; tissue uptake at 24 h ([1]; pancreas, 24 h p.i., read-out: Biodistribution, Pancreas): 0.17 ± 0.19 %ID/g; tissue uptake at 120 h ([1]; pancreas, 120 h p.i., read-out: Biodistribution, Pancreas): 0.09 ± 0.05 %ID/g; tissue uptake at 1 h ([1]; spleen, 1 h p.i., read-out: Biodistribution, Spleen): 2.1 ± 1.03 %ID/g; tissue uptake at 4 h ([1]; spleen, 4 h p.i., read-out: Biodistribution, Spleen): 1.46 ± 0.67 %ID/g; tissue uptake at 24 h ([1]; spleen, 24 h p.i., read-out: Biodistribution, Spleen): 1.05 ± 0.45 %ID/g; tissue uptake at 120 h ([1]; spleen, 120 h p.i., read-out: Biodistribution, Spleen): 0.65 ± 0.34 %ID/g; tissue uptake at 1 h ([1]; stomach, 1 h p.i., read-out: Biodistribution, Stomach): 0.89 ± 0.5 %ID/g; tissue uptake at 4 h ([1]; stomach, 4 h p.i., read-out: Biodistribution, Stomach): 1.65 ± 2.22 %ID/g; tissue uptake at 24 h ([1]; stomach, 24 h p.i., read-out: Biodistribution, Stomach): 1.17 ± 0.77 %ID/g; tissue uptake at 120 h ([1]; stomach, 120 h p.i., read-out: Biodistribution, Stomach): 0.19 ± 0.21 %ID/g; tissue uptake at 1 h ([1]; thyroid, 1 h p.i., read-out: Biodistribution, Thyroid): 3.41 ± 0.51 %ID/g; tissue uptake at 4 h ([1]; thyroid, 4 h p.i., read-out: Biodistribution, Thyroid): 3.86 ± 0.39 %ID/g; tissue uptake at 24 h ([1]; thyroid, 24 h p.i., read-out: Biodistribution, Thyroid): 4.03 ± 1.33 %ID/g; tissue uptake at 120 h ([1]; thyroid, 120 h p.i., read-out: Biodistribution, Thyroid): 0.86 ± 0.31 %ID/g; tissue to tissue ratio at 1 h ([1]; tumour/blood, 1 h p.i., read-out: Tumour/blood): 1.82 ± 0.82; tissue to tissue ratio at 4 h ([1]; tumour/blood, 4 h p.i., read-out: Tumour/blood): 8.59 ± 4.19; tissue to tissue ratio at 24 h ([1]; tumour/blood, 24 h p.i., read-out: Tumour/blood): 87.6 ± 47.8; tissue to tissue ratio at 120 h ([1]; tumour/blood, 120 h p.i., read-out: Tumour/blood): 52.9 ± 41.3; tissue to tissue ratio at 1 h ([1]; tumour/kidney, 1 h p.i., read-out: Tumour/kidney): 1.41 ± 0.71; tissue to tissue ratio at 4 h ([1]; tumour/kidney, 4 h p.i., read-out: Tumour/kidney): 2.05 ± 0.86; tissue to tissue ratio at 24 h ([1]; tumour/kidney, 24 h p.i., read-out: Tumour/kidney): 1.14 ± 0.5; tissue to tissue ratio at 120 h ([1]; tumour/kidney, 120 h p.i., read-out: Tumour/kidney): 0.42 ± 0.18; tissue to tissue ratio at 1 h ([1]; tumour/muscle, 1 h p.i., read-out: Tumour/muscle): 18.7 ± 8.13; tissue to tissue ratio at 4 h ([1]; tumour/muscle, 4 h p.i., read-out: Tumour/muscle): 57.7 ± 22.4; tissue to tissue ratio at 24 h ([1]; tumour/muscle, 24 h p.i., read-out: Tumour/muscle): 167 ± 88.7; tissue to tissue ratio at 120 h ([1]; tumour/muscle, 120 h p.i., read-out: Tumour/muscle): 38.9 ± 24; excreta dose per gram or mL at 1 h ([1]; urine, 1 h p.i.): 87.9 ± 48.2 %ID/g; excreta dose per gram or mL at 4 h ([1]; urine, 4 h p.i.): 113 ± 29.4 %ID/g; excreta dose per gram or mL at 24 h ([1]; urine, 24 h p.i.): 6.11 ± 1.66 %ID/g; excreta dose per gram or mL at 120 h ([1]; urine, 120 h p.i.): 1.21 ± 0.21 %ID/g; Biodistribution, B16F10 tumour (B16F10 mouse melanoma; 1 h p.i.): 13.3 ± 3.34 % ID/g; Biodistribution, B16F10 tumour (B16F10 mouse melanoma; 4 h p.i.): 20.8 ± 5.37 % ID/g; Biodistribution, B16F10 tumour (B16F10 mouse melanoma; 24 h p.i.): 7.59 ± 1.70 % ID/g; Biodistribution, B16F10 tumour (B16F10 mouse melanoma; 120 h p.i.): 0.79 ± 0.39 % ID/g
